Results: the supplement of paper PMC11208160

Assay: recombinant UMI read abundance after kanamycin selection (control-corrected) (log10(CPM+1)); higher = more efficient recombination; extreme values may be limits of the assay; sequences stand for … in AGTGCAGAGAAAATCGGCCAGTTTTCTCTGCCTGCAGTCCGCATGCCGTGGGACCCCTTGGGTTCTAACCTGTTGCCTAGATTTATGCAGCGGACTGCCTTTCTCCCAAAGTGATAAACCGG…AGGTTGGTTTCACT; site = the 11-nt donor
Outline: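 In a pooled Escherichia coli screen for the IS621 bridge recombinase, donor and donor-binding-loop pairs were each placed with a 12-nt UMI on a plasmid bearing a promoterless kanamycin gene. This library was co-electroporated with a target plasmid encoding a fixed target and T7-inducible recombinase, and cells were plated either on IPTG (0.07 mM) plus kanamycin or without selection, in two replicates each. Recombinant UMIs were PCR-amplified across the donor–target junction and sequenced, and counts were converted to CPM, averaged over replicates, scaled by control-derived factors and reported as log10(CPM+1).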

In order of rising “recombinant UMI read abundance (log10)” value:
1. CTATCATCATGGACCGGTTTTCCCGGTAATCCGTATTTGGT (site CGATCATCTAG)  0
2. CTCAAGCCATGGACCGGTTTTCCCGGTAATCCGTATTTGAG (site CTCAAGCCTCT)  0
3. CTCAGACCATGGACCGGTTTTCCCGGTAATCCGTATTTGCG (site CTCAGACCTCG)  0
4. CTCAGGACATGGACCGGTTTTCCCGGTAATCCGTATTTGAG (site CTCAGGACTCT)  0
5. CTCCACACATGGACCGGTTTTCCCGGTAATCCGTATTTGCT (site CTCAACACTAG)  0
6. CTCCACACATGGACCGGTTTTCCCGGTAATCCGTATTTGCT (site CTCGACACTAG)  0
7. CTCCTGTCATGGACCGGTTTTCCCGGTAATCCGTATTTGAC (site CTCCTGTCTGT)  0
8. CTCGCGGCATGGACCGGTTTTCCCGGTAATCCGTATTTGCC (site CTCGCGGCTGG)  0
9. CTCGTATCATGGACCGGTTTTCCCGGTAATCCGTATTTGAC (site CTGGTATCTGT)  0
10. CTCGTATCATGGACCGGTTTTCCCGGTAATCCGTATTTGAC (site CTTGTATCTGT)  0
11. CTCTAAACATGGACCGGTTTTCCCGGTAATCCGTATTTGCT (site CTCTATACTAG)  0
12. CTCTATACATGGACCGGTTTTCCCGGTAATCCGTATTTGCT (site CTCTAAACTAG)  0
13. CTCTATACATGGACCGGTTTTCCCGGTAATCCGTATTTGCT (site CTCTAGACTAG)  0
14. CTGAAAACATGGACCGGTTTTCCCGGTAATCCGTATTTGCA (site CTGCAAACTTG)  0
15. CTGAAAACATGGACCGGTTTTCCCGGTAATCCGTATTTGCA (site CTGGAAACTTG)  0
16. CTGAAAACATGGACCGGTTTTCCCGGTAATCCGTATTTGCA (site CTGTAAACTTG)  0
17. CTGAATCCATGGACCGGTTTTCCCGGTAATCCGTATTTGTT (site CCGAATCCTAA)  0
18. CTGAATCCATGGACCGGTTTTCCCGGTAATCCGTATTTGTT (site CGGAATCCTAA)  0
19. CTGAATGCATGGACCGGTTTTCCCGGTAATCCGTATTTGTT (site CGGAATCCTAA)  0.00219
20. CTCCGTACATGGACCGGTTTTCCCGGTAATCCGTATTTGCT (site CGCCGTACTAG)  0.00286
21. CTCGTATCATGGACCGGTTTTCCCGGTAATCCGTATTTGAC (site CTAGTATCTGT)  0.00452
22. CTCTCTACATGGACCGGTTTTCCCGGTAATCCGTATTTGAG (site CTCGCTACTCT)  0.00461
23. CTCCCTACATGGACCGGTTTTCCCGGTAATCCGTATTTGTG (site CTCCCTACTCT)  0.00616
24. CTATCAACATGGACCGGTTTTCCCGGTAATCCGTATTTGCT (site CGATCATCTAG)  0.00622
25. CTCTCTACATGGACCGGTTTTCCCGGTAATCCGTATTTGAG (site CTCCCTACTCT)  0.00919
26. CTCTCTACATGGACCGGTTTTCCCGGTAATCCGTATTTGAG (site CTCTCTACTCT)  0.0107
27. CTGAATCCATGGACCGGTTTTCCCGGTAATCCGTATTTGTT (site CAGAATCCTAA)  0.0107
28. CTCGTAACATGGACCGGTTTTCCCGGTAATCCGTATTTGAC (site CTAGTATCTGT)  0.0113
29. CTCTCTACATGGACCGGTTTTCCCGGTAATCCGTATTTGAG (site CTCACTACTCT)  0.0192
30. CTCGCTCCATGGACCGGTTTTCCCGGTAATCCGTATTTGAG (site CTCGCTCCTCT)  0.0649
31. CTCCCTACATGGACCGGTTTTCCCGGTAATCCGTATTTGTG (site CTCCCTACTCG)  0.143
32. CTCCCGACATGGACCGGTTTTCCCGGTAATCCGTATTTGGA (site CTCCCGACTTC)  0.231
33. CTCTAAACATGGACCGGTTTTCCCGGTAATCCGTATTTGCT (site CTCTAGACTAG)  0.36
34. CTCAACACATGGACCGGTTTTCCCGGTAATCCGTATTTGCT (site CTCGACACTAG)  0.368
35. CTCAACACATGGACCGGTTTTCCCGGTAATCCGTATTTGCT (site CTCCACACTAG)  0.438
36. CTATTCCCATGGACCGGTTTTCCCGGTAATCCGTATTTGCT (site CGATTCCCTAG)  0.475
37. CTCCCTACATGGACCGGTTTTCCCGGTAATCCGTATTTGTG (site CTCCCTACTCA)  0.525
38. CTCTATACATGGACCGGTTTTCCCGGTAATCCGTATTTGCT (site CTCTACACTAG)  0.592
39. CTCCCTACATGGACCGGTTTTCCCGGTAATCCGTATTTGTG (site CTCCCTACTCC)  0.617
40. CTCTAAACATGGACCGGTTTTCCCGGTAATCCGTATTTGCT (site CTCTACACTAG)  0.676
41. CTATCATCATGGACCGGTTTTCCCGGTAATCCGTATTTGGT (site CTATCATCTAC)  0.706
42. CTATTCCCATGGACCGGTTTTCCCGGTAATCCGTATTTGCT (site CAATTCCCTAG)  0.77
43. CTATTCCCATGGACCGGTTTTCCCGGTAATCCGTATTTGCT (site CTATTCCCTAG)  0.845
44. CTGCTAACATGGACCGGTTTTCCCGGTAATCCGTATTTGGA (site CTACTAACTTC)  1.16
45. CTCAACACATGGACCGGTTTTCCCGGTAATCCGTATTTGCT (site CTCTACACTAG)  1.23
46. CTCCGTACATGGACCGGTTTTCCCGGTAATCCGTATTTGCT (site CCCCGTACTAG)  1.28
47. CTCCGTACATGGACCGGTTTTCCCGGTAATCCGTATTTGCT (site CACCGTACTAG)  1.41
48. CTATTCCCATGGACCGGTTTTCCCGGTAATCCGTATTTGCT (site CCATTCCCTAG)  1.43
49. CTCCGTACATGGACCGGTTTTCCCGGTAATCCGTATTTGCT (site CTCCGTACTAG)  1.45
50. CTCTGTTCATGGACCGGTTTTCCCGGTAATCCGTATTTGCC (site CTCTGTTCTGG)  1.45
51. CTCAGAACATGGACCGGTTTTCCCGGTAATCCGTATTTGCC (site CTCAGAACTGG)  1.47
52. CTGAAAACATGGACCGGTTTTCCCGGTAATCCGTATTTGCA (site CTGAAAACTTG)  1.48
53. CTGAATCCATGGACCGGTTTTCCCGGTAATCCGTATTTGTT (site CTGAATCCTAA)  1.5
54. CTCCACACATGGACCGGTTTTCCCGGTAATCCGTATTTGCT (site CTCTACACTAG)  1.54
55. CTCCACGCATGGACCGGTTTTCCCGGTAATCCGTATTTGTT (site CTCCACGCTAA)  1.57
56. CTGCATACATGGACCGGTTTTCCCGGTAATCCGTATTTGTA (site CTGCATACTTA)  1.59
57. CTGCCGACATGGACCGGTTTTCCCGGTAATCCGTATTTGCG (site CTGCCGACTCG)  1.83
58. CTATCAACATGGACCGGTTTTCCCGGTAATCCGTATTTGCT (site CTATCAACTAG)  1.92
59. CTGAATGCATGGACCGGTTTTCCCGGTAATCCGTATTTGTT (site CTGAATGCTAA)  1.94
60. CTCAACACATGGACCGGTTTTCCCGGTAATCCGTATTTGCT (site CTCAACACTAG)  2
61. CTCTAAACATGGACCGGTTTTCCCGGTAATCCGTATTTGCT (site CTCTAAACTAG)  2.06
62. CTCCACACATGGACCGGTTTTCCCGGTAATCCGTATTTGCT (site CTCCACACTAG)  2.08
63. CTCTATACATGGACCGGTTTTCCCGGTAATCCGTATTTGCT (site CTCTATACTAG)  2.08
64. CTCGCTACATGGACCGGTTTTCCCGGTAATCCGTATTTGCA (site CTCGCTACTTG)  2.41
65. CTCGTAACATGGACCGGTTTTCCCGGTAATCCGTATTTGAC (site CTCGTAACTGT)  2.56
66. CTATCCTCATGGACCGGTTTTCCCGGTAATCCGTATTTGAA (site CTATCCTCTTT)  2.6
67. CTCGTATCATGGACCGGTTTTCCCGGTAATCCGTATTTGAC (site CTCGTATCTGT)  2.6
68. CTCTTCACATGGACCGGTTTTCCCGGTAATCCGTATTTGGC (site CTCTTCACTGC)  2.73
